From article PMC11638965, “Leveraging Dual-Ligase Recruitment to Enhance Protein Degradation via a Heterotrivalent Proteolysis Targeting Chimera” (Journal of the American Chemical Society, 2024)
pEC50: −log10 of the molar value. “Also recorded” adds a separate entry of the source. Read-outs that look alike come from different tables or passages of the source.

Assays:
RKO CRBN/VHL dKO cells = assay: Cell viability assay (CellTiter-Glo); type: cell-based, human
Method: (§1) RKO WT, VHL KO, CRBN KO and CRBN/VHL dKO cells were cultured in Dulbecco’s modified Eagle’s medium supplemented with 10% FCS and 1% penicillin–streptomycin. RKO CRBN KO and VHL KO were generated previously.[45] RKO CRBN/VHL dKO cells were generated by transiently expressing pSpCas9(BB)-2A-GFP (PX458) (Addgene 48138) loaded with a short guide RNA (sgRNA) targeting VHL (Fwd: […], Rev: […]) in RKO CRBN KO cells. Clones were single cell seeded and checked for VHL and CRBN double deletion via Western blot or PCR on genomic DNA (gDNA).
(§2) Cells were seeded in 96-well plates at a cell density of 3750 cells per well and treated for 3 days with DMSO or drug at ten √10 serial diluted concentrations. Starting concentration for all drugs was 10 μM, and each treatment was performed in biological triplicates. Cell viability was assessed using the CellTiter-Glo assay (CellTiter-Glo Luminescent Cell Viability Assay, Promega G7573) according to manufacturer instructions. Luminescence signal was measured on a Multilabel Plate Reader Platform Victor X3 model 2030 (PerkinElmer). Survival curves and EC50 values were determined using GraphPad Prism v.10.0.3 by fitting a nonlinear regression to the log10-transformed drug concentration and the relative viability after normalization of each data point to the mean luminescence of the lowest drug concentration.

RKO VHL KO cells = assay: Cell viability assay (CellTiter-Glo); type: cell-based, human
Method: as §1, §2

RKO CRBN KO cells [1] = assay: Cell viability assay (CellTiter-Glo); type: cell-based, human; settings: 500 pM to 10 μM, 3 days (Figure 10, Table S6)
BRD4 = BRD4 (Homo sapiens, UniProt O60885); assay: Live cell kinetic HiBiT degradation assay, HiBiT-BRD4 HEK293 cells (parental, CRBN KO, VHL KO); type: cell-based; settings: parental, CRBN KO and VHL KO HiBiT-BRD4 HEK293 cells (Figure S5); listed as 93
Method: HEK293 HiBiT-BRD2 (LgBiT stable), HEK293 HiBiT-BRD3 (LgBiT stable), and HEK293 HiBiT-BRD4 (LgBiT stable) were created using CRISPR/Cas9 to insert at HiBiT tag at the N-terminal genomic loci of BRD2, BRD3, or BRD4 in a cell line stably expressing LgBiT protein as described previously.[23]
For kinetic degradation experiments, HEK293 HiBiT-BRD2, 3, or 4 (LgBiT stable) cells and HEK293 HiBiT-BRD4 (LgBiT) CRBN KO and VHL KO cells were plated at 20,000 cells/well in DMEM +10% FBS in white 96-well tissue culture plates and allowed to adhere overnight. The next day, media was removed and 90 μL of prewarmed CO2-independent medium (Gibco) containing Endurazine (Promega) at a 1:100 dilution from stock was added. Plates were incubated at 37 °C for 3 h to allow luminescence to equilibrate. A threefold dilution series of each PROTAC at 10x the desired final concentration was prepared (with the amount of DMSO in each treatment condition kept constant). After luminescence equilibration, a preread luminescence measurement was taken (prior to compound addition) to allow for baseline normalization to account for possible plating differences. Cells were then treated with 10 μL of the prepared PROTAC dilution series (in triplicate or quadruplicate). Treated plates were placed in a GloMax Discover luminometer (Promega) prewarmed to 37 °C and luminescence measurements were obtained every 7 min for 24 h. Kinetic degradation plots were obtained by first normalizing time course luminescence readings in each well to the preread measurement, then to the average value of the DMSO only control at each time point. Data was analyzed using GraphPad Prism (version 8) and excel. Dmax values were identified as the lowest luminescence reading in each well. Rate constant values were calculated using a one phase exponential decay Y = (Y0-Plateau) e(K*^X) + Plateau using Prism (Y0 constrained to 1). Dmax 50 values were calculated by plotting Dmax as a function of concentration, then fitting plots using the following equation: [drawing 1] to determine IC50.
HiBiT-BRD4 (LgBiT stable) HEK293 cells (Promega) were used to generate both VHL KO HiBiT-BRD4 (LgBiT stable) and CRBN KO HiBiT-BRD4 (LgBiT stable) cell lines. For VHL, gRNAs targeting exon 1 ([…]) and exon 2 ([…]) and for CRBN, gRNAs targeting exon 3 ([…]) and exon 6 ([…]) were purchased from IDT DNA (Table 5). For each gRNA, tracrRNA/crRNA duplexes were formed by combining 10 μL of 100 μM Alt-R […] (IDT), 100 μM Alt-R crRNA (IDT) and heating at 95C for 5 min, then were allowed to cool to room temp for 20 min. RNPs were then formed by combining 75 pmol Cas9 (IDT) with 2.4 μL total of prepared tracrRNA/crRNA complex (1.2 μL for each gRNA targeting each exon). Cells were then trypsinized and resuspended at 10,000,000 cells/mL in 1 mL of Mirus Ingenio electroporation solution. Three μL of 100 μM electroporation enhancer (Mirus) was added, along with 3 μL of RNP solution. Cells were electroporated in 2 mm cuvettes using a BioRad system (190 V, 950 μF, infinite resistance) and were then plated in a T75 flask in full growth medium to allow for recovery. After recovery from electroporation, knockout pools were sorted for single cells in 96-well tissue culture treated plates. Clonal populations which expanded from single cells were then screened for loss of function of VHL by treating with MZ1, or loss of function of CRBN by treating with dBET6, using a HiBiT-BRD4 luminescent readout assay. Genomic DNA isolated from candidate clones was then PCR-amplified (Table of primers below), Gibson-assembled into a pF1A plasmid backbone, transformed into E. coli., and then Sanger sequenced to confirm presence of indels in the targeted exons. […] VHL exon 3 carried a 19 bp deletion on one allele, and a 1 bp insertion on the other allele, both occurring after the premature stop codon in exon 1.

RKO WT cells = assay: cells; type: cell-based, human
Method: as §1
as §2, with “Starting concentration for all drugs was 10 μM, and each treatment was performed in biological triplicates.” left out

RKO CRBN KO cells [2] = assay: Cell viability assay (CellTiter-Glo); type: cell-based, human; settings: Homo sapiens, 72 h, 316 pM to 10 μM, 3 days, n = 6 (Figure 3C, Table S1)
Method: as §1, §2

K562 cells = assay: Cell viability assay (CellTiter-Glo); type: cell-based, human; settings: Homo sapiens; WT K562, 5.12 pM to 10 uM, n = 3 (Table S4)
Method: as §2, with “[…],” for “3750 cells per well and treated for 3 days with DMSO or drug at ten √10 serial diluted concentrations. Starting concentration for all drugs was 10 μM,”

KBM7 cells = assay: Cell viability assay (CellTiter-Glo); type: cell-based, human; settings: Homo sapiens, KBM-7; WT KBM7, 5.12 pM to 10 uM, n = 3 (Table S4)
Method: as §2, with “[…],” for “3750 cells per well and treated for 3 days with DMSO or drug at ten √10 serial diluted concentrations. Starting concentration for all drugs was 10 μM,”

[3] = Homo sapiens, 72 h, 500 pM to 10 μM, 3 days (Figure 10, Table S6), read-out: EC50 RKO WT

Row | pEC50 (RKO WT cells; 500 pM to 10 μM, 3 days (Figure 10, Table S6), listed as 93, read-out: EC50 RKO WT) | pEC50 (RKO WT cells; [3]) | pEC50 (K562 cells) | pEC50 (RKO WT cells; Homo sapiens, 72 h, 316 pM to 10 μM, 3 days, n = 6 (Figure 3C, Table S1), read-out: EC50 RKO WT) | pEC50 (RKO WT cells; Homo sapiens, RKO WT, 316 pM to 10 μM, n = 6, combination: dBET6 and MZ1 each from 5 μM (Table S7), read-out: EC50 RKO) | pEC50 (RKO WT cells; Homo sapiens, WT RKO, 316 pM to 10 μM, n = 3 (Table S4), read-out: EC50 RKO) | Structure (SMILES) | pEC50 (RKO CRBN/VHL dKO cells; 500 pM to 10 μM, 3 days (Figure 10, Table S6), read-out: EC50 RKO CRBN/VHL dKO) | pEC50 (RKO CRBN/VHL dKO cells; Homo sapiens, 72 h, 500 pM to 10 μM, 3 days (Figure 10, Table S6), read-out: EC50 RKO CRBN/VHL dKO) | pEC50 (RKO VHL KO cells; 500 pM to 10 μM, 3 days (Figure 10, Table S6)) | pEC50 (RKO VHL KO cells; Homo sapiens, 72 h, 500 pM to 10 μM, 3 days (Figure 10, Table S6)) | pEC50 (RKO CRBN KO cells [1]; listed as 93) | pEC50 (RKO CRBN KO cells [1]; Homo sapiens, 72 h) | on-target BRD4 degradation activity (in words) (BRD4) | pEC50 (RKO CRBN/VHL dKO cells; Homo sapiens, Figure 10 experiment, read-out: EC50 RKO VHL/CRBN dKO) | pEC50 (RKO CRBN/VHL dKO cells; Homo sapiens, both VHL and CRBN knocked out (Figure 3C), read-out: EC50 RKO CRBN/VHL dKO) | pEC50 (RKO VHL KO cells; Homo sapiens, 72 h, 316 pM to 10 μM, 3 days, n = 6 (Figure 3C, Table S1)) | pEC50 (RKO VHL KO cells; Homo sapiens, Figure 10 experiment) | pEC50 (RKO CRBN KO cells [2]) | pEC50 (KBM7 cells)
1 | 6.97 | ~6.97 | – | – | – | – | Cc1ncsc1-c1ccc([C@H](C)NC(=O)[C@@H]2C[C@@H](O)CN2C(=O)[C@@H](NC(=O)COCC(C)(COCCOCCOCCNc2cc3c(cc2F)C(=O)N(C2CCC(=O)N(C)C2=O)C3=O)COCCOCCOCCOC(=O)C[C@@H]2N=C(c3ccc(Cl)cc3)c3c(sc(C)c3C)-n3c(C)nnc32)C(C)(C)C)cc1 (mixture of isomers) [neg-AB3067 (93), (17S)-11-((2-(2-(2-((6-fluoro-2-(1-methyl-2,6-dioxopiperidin-3-yl)-1,3-dioxoisoindolin-5-yl)amino)ethoxy)ethoxy)ethoxy)methyl)-17-((2S,4R)-4-hydroxy-2-(((S)-1-(4-(4-methylthiazol-5-yl)phenyl)ethyl)carbamoyl)pyrrolidine-1-carbonyl)-11,18,18-trimethyl-15-oxo-3,6,9,13-tetraoxa-16-azanonadecyl 2-((S)-4-(4-chlorophenyl)-2,3,9-trimethyl-6H-thieno[3,2-f][1,2,4]triazolo[4,3-a][1,4]diazepin-6-yl)acetate] | ~6.40 | 6.38 | ~6.40 | 6.41 | 6.98 | ~6.97 | inactive in VHL KO cells; also recorded: decreased relative to 27 in parental and CRBN KO cells | – | – | – | – | – | –
2 | – | 6.80 | 6.66 | 6.67 | 6.82 | 6.73 | Cc1ncsc1-c1ccc(CNC(=O)[C@@H]2C[C@@H](O)CN2C(=O)[C@@H](NC(=O)COCCOCCOCCNC(=O)C[C@@H]2N=C(c3ccc(Cl)cc3)c3c(sc(C)c3C)-n3c(C)nnc32)C(C)(C)C)cc1 [MZ1, reference compound] | – | – | – | – | – | 6.87 | – | < 5.30 | < 5.00 | < 5.00 | < 5.30 | 6.74 | 7.18
